Measured values taken from patent US10294202B2, “Pyrrolidinones as herbicides” (FMC Corporation, priority 2013, dated 2019).

Columns and labels:
crabgrass, large = test: Test C pre-/postemergence herbicide test; type: in vivo, Digitaria sanguinalis
Outline: (§1)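 Pre-emergence: seeds sown in loam/sand blend and treated with compound in surfactant-containing solvent. Post-emergence: plants at 2–18 cm (1- to 4-leaf stage) in peat-based medium sprayed with the same formulation. Visual rating versus controls after 13–15 days in greenhouse, scale 0 (no effect) to 100 (complete control).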

soybean = test: Test C pre-/postemergence herbicide test; type: in vivo, Glycine max; settings: for Soybean plant response rating: scale 0 to 100, 0 is no effect and 100 is complete control
Outline: as §1

ducksalad = test: Test B flooded paddy test; type: in vivo, Heteranthera limosa; settings: 250 g ai/ha, Flood; scale of 0 to 100 where 0 is no effect and 100 is complete control
Outline: (§2)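 Plants were grown to the 2-leaf stage, then pots were flooded to 3 cm above the soil and compound was applied directly into the paddy water, with that depth held throughout. After 13 to 15 days in a greenhouse, injury was rated visually against untreated controls on a 0 to 100 scale (100 = complete control).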

rice = test: Test B flooded paddy test; type: in vivo, Oryza sativa; settings: 250 g ai/ha, Flood; scale of 0 to 100 where 0 is no effect and 100 is complete control
Outline: as §2

ryegrass, Italian = test: Test C pre-/postemergence herbicide test; type: in vivo, Lolium multiflorum; settings: for Ryegrass, Italian plant response rating: scale 0 to 100, 0 is no effect and 100 is complete control
Outline: as §1

barnyardgrass = test: Test B flooded paddy test; type: in vivo, Echinochloa crus-galli; settings: 250 g ai/ha, Flood; scale of 0 to 100 where 0 is no effect and 100 is complete control
Outline: as §2

velvetleaf = test: Test C pre-/postemergence herbicide test; type: in vivo, Abutilon theophrasti; settings: for Velvetleaf plant response rating: scale 0 to 100, 0 is no effect and 100 is complete control
Outline: as §1

blackgrass = test: Test C pre-/postemergence herbicide test; type: in vivo, Alopecurus myosuroides
Outline: as §1

corn = test: Test A pre-/postemergence herbicide test; type: in vivo, Zea mays
Outline: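 Seeds in loam–sand blend received preemergence directed soil spray; separately, plants 2–10 cm at one- to two-leaf stage received postemergence spray, both with test chemicals in non-phytotoxic solvent with surfactant. After ~10 days in greenhouse, injury rated visually against untreated controls, 0 (no effect) to 100 (complete control).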

sedge, umbrella = test: Test B flooded paddy test; type: in vivo, Cyperus difformis; settings: 250 g ai/ha, Flood; scale of 0 to 100 where 0 is no effect and 100 is complete control
Outline: as §2

[1] = Preemergence, 31 g ai/ha, scale 0 to 100, 0 is no effect and 100 is complete control
[2] = Preemergence, 62 g ai/ha, scale 0 to 100
[3] = Preemergence, 125 g ai/ha, scale 0 to 100 (0 no effect, 100 complete control)
[4] = Preemergence, 250 g ai/ha, scale 0 to 100 (0 no effect, 100 complete control)
[5] = Postemergence, 125 g ai/ha, 0 to 100 scale, 0 no effect, 100 complete control
[6] = Postemergence, 500 g ai/ha, 0 to 100 scale (0 no effect, 100 complete control)
[7] = Preemergence, 125 g ai/ha, visual rating on 0 to 100 scale (0 no effect, 100 complete control)
[8] = preemergence, 500 g ai/ha, 0 to 100 scale
[9] = Preemergence, 31 g ai/ha, scale 0 to 100 (0 no effect, 100 complete control)
[10] = Postemergence, 31 g ai/ha, scale 0 (no effect) to 100 (complete control)
[11] = Postemergence, 62 g ai/ha, scale 0 to 100 (0 no effect, 100 complete control)
[12] = Postemergence, 125 g ai/ha, scale 0 to 100 (0 no effect, 100 complete control)
[13] = Postemergence, 250 g ai/ha, scale 0 to 100 (0 no effect, 100 complete control)

O=C1NCC(c2cccc(Br)c2)C1C(=O)Nc1ccccc1F (stereo not drawn) [Compound 66]
Crabgrass, Large plant response rating (crabgrass, large; [1]): 90
Plant response rating, Crabgrass, Large (crabgrass, large; [2]): 95
Plant response rating, Crabgrass, Large (crabgrass, large; [3]): 98
Plant response rating, Crabgrass, Large (crabgrass, large; [4]): 98
Soybean plant response rating (soybean; Preemergence, 31 g ai/ha): 15
Plant response rating, Soybean (soybean; [2]): 20
Plant response rating, Soybean (soybean; [3]): 20
Plant response rating, Ducksalad (ducksalad): 75
Plant response rating, Rice (rice): 0
Ryegrass, Italian plant response rating (ryegrass, Italian; Preemergence, 31 g ai/ha): 0
Plant response rating, Ryegrass, Italian (ryegrass, Italian; [2]): 0
Plant response rating, Ryegrass, Italian (ryegrass, Italian; [3]): 0
Plant response rating, Barnyardgrass (barnyardgrass): 0
Velvetleaf plant response rating (velvetleaf; Preemergence, 31 g ai/ha): 10
Plant response rating, Velvetleaf (velvetleaf; [2]): 20
Plant response rating, Velvetleaf (velvetleaf; [3]): 25
Blackgrass plant response rating (blackgrass; [1]): 0
Plant response rating, Blackgrass (blackgrass; [2]): 0
Plant response rating, Blackgrass (blackgrass; [3]): 0
Plant response rating, Blackgrass (blackgrass; [4]): 20
Plant response rating, Corn (corn; [5]): 20
Plant response rating, Corn (corn; [6]): 80
Corn plant response rating (corn; [7]): 20
Plant response rating, Corn (corn; [8]): 20
Plant response rating, Sedge, Umbrella (sedge, umbrella): 50

Cc1ccccc1NC(=O)C1C(=O)NCC1c1cc(F)c(F)c(F)c1 (racemic) [Compound 35]
Crabgrass, Large plant response rating (crabgrass, large; [9]): 95
Plant response rating, Crabgrass, Large (crabgrass, large; [2]): 98
Plant response rating, Crabgrass, Large (crabgrass, large; [3]): 100
Plant response rating, Crabgrass, Large (crabgrass, large; [4]): 100
Plant response rating, Soybean (soybean; [2]): 0
Plant response rating, Soybean (soybean; [3]): 0
Plant response rating, Ducksalad (ducksalad): 80
Plant response rating, Rice (rice): 0
Plant response rating, Ryegrass, Italian (ryegrass, Italian; [2]): 5
Plant response rating, Ryegrass, Italian (ryegrass, Italian; [3]): 5
Plant response rating, Barnyardgrass (barnyardgrass): 0
Plant response rating, Velvetleaf (velvetleaf; [2]): 20
Plant response rating, Velvetleaf (velvetleaf; [3]): 20
Blackgrass plant response rating (blackgrass; [9]): 0
Plant response rating, Blackgrass (blackgrass; [2]): 0
Plant response rating, Blackgrass (blackgrass; [3]): 5
Plant response rating, Blackgrass (blackgrass; [4]): 50
Plant response rating, Corn (corn; Postemergence, 1000 g ai/ha, 0 to 100 scale (0 no effect, 100 complete control)): 20
Plant response rating, Corn (corn; Preemergence, 1000 g ai/ha, visual rating on 0 to 100 scale (0 no effect, 100 complete control), approx. 10 days): 20
Plant response rating, Sedge, Umbrella (sedge, umbrella): 0

O=C1NCC(c2ccccc2)C1C(=O)Nc1ccccc1F (racemic) [Compound 81]
Plant response rating, Crabgrass, Large (crabgrass, large; [10]): 0
Plant response rating, Crabgrass, Large (crabgrass, large; [11]): 0
Plant response rating, Crabgrass, Large (crabgrass, large; [12]): 3
Plant response rating, Crabgrass, Large (crabgrass, large; [13]): 7
Crabgrass, Large plant response rating (crabgrass, large; [1]): 50
Plant response rating, Crabgrass, Large (crabgrass, large; [2]): 75
Plant response rating, Crabgrass, Large (crabgrass, large; [3]): 90
Plant response rating (scale of 0 to 100), Crabgrass, Large (crabgrass, large; Preemergence, 250 g ai/ha): 95
Plant response rating, Soybean (soybean; [10]): 0
Plant response rating, Soybean (soybean; [11]): 3
Plant response rating, Soybean (soybean; [12]): 3
Plant response rating, Soybean (soybean; [13]): 8
Soybean plant response rating (soybean; Preemergence, 31 g ai/ha): 0
Plant response rating, Soybean (soybean; [2]): 0
Plant response rating, Soybean (soybean; [3]): 0
Plant response rating (scale of 0 to 100), Soybean (soybean; Preemergence, 250 g ai/ha): 0
Plant response rating, Ducksalad (ducksalad): 70
Plant response rating, Ryegrass, Italian (ryegrass, Italian; [10]): 0
Plant response rating, Ryegrass, Italian (ryegrass, Italian; [11]): 0
Plant response rating, Ryegrass, Italian (ryegrass, Italian; [12]): 0
Plant response rating, Ryegrass, Italian (ryegrass, Italian; [13]): 0
Ryegrass, Italian plant response rating (ryegrass, Italian; Preemergence, 31 g ai/ha): 0
Plant response rating, Ryegrass, Italian (ryegrass, Italian; [2]): 0
Plant response rating, Ryegrass, Italian (ryegrass, Italian; [3]): 0
Plant response rating (scale of 0 to 100), Ryegrass, Italian (ryegrass, Italian; Preemergence, 250 g ai/ha): 0
Plant response rating, Barnyardgrass (barnyardgrass): 20
Plant response rating, Velvetleaf (velvetleaf; [10]): 0
Plant response rating, Velvetleaf (velvetleaf; [11]): 0
Plant response rating, Velvetleaf (velvetleaf; [12]): 0
Plant response rating, Velvetleaf (velvetleaf; [13]): 0
Velvetleaf plant response rating (velvetleaf; Preemergence, 31 g ai/ha): 0
Plant response rating, Velvetleaf (velvetleaf; [2]): 0
Plant response rating, Velvetleaf (velvetleaf; [3]): 0
Plant response rating (scale of 0 to 100), Velvetleaf (velvetleaf; Preemergence, 250 g ai/ha): 0
Plant response rating, Blackgrass (blackgrass; [10]): 0
Plant response rating, Blackgrass (blackgrass; [11]): 0
Plant response rating, Blackgrass (blackgrass; [12]): 0
Plant response rating, Blackgrass (blackgrass; [13]): 0
Blackgrass plant response rating (blackgrass; [1]): 0
Plant response rating, Blackgrass (blackgrass; [2]): 0
Plant response rating, Blackgrass (blackgrass; [3]): 0
Plant response rating (scale of 0 to 100), Blackgrass (blackgrass; Preemergence, 250 g ai/ha): 0
Plant response rating, Corn (corn; [5]): 0
Plant response rating, Corn (corn; [6]): 0
Corn plant response rating (corn; [7]): 0
Plant response rating, Corn (corn; [8]): 0
Plant response rating, Sedge, Umbrella (sedge, umbrella): 0

O=C1NCC(c2cccc(OC(F)(F)F)c2)C1C(=O)Nc1cccc(F)c1F (stereo not drawn) [Compound 68]
Crabgrass, Large plant response rating (crabgrass, large; [1]): 90
Plant response rating, Crabgrass, Large (crabgrass, large; [2]): 90
Plant response rating, Crabgrass, Large (crabgrass, large; [3]): 95
Plant response rating, Crabgrass, Large (crabgrass, large; [4]): 95
Soybean plant response rating (soybean; Preemergence, 31 g ai/ha): 0
Plant response rating, Soybean (soybean; [2]): 0
Plant response rating, Soybean (soybean; [3]): 10
Plant response rating, Ducksalad (ducksalad): 90
Plant response rating, Rice (rice): 25
Ryegrass, Italian plant response rating (ryegrass, Italian; Preemergence, 31 g ai/ha): 0
Plant response rating, Ryegrass, Italian (ryegrass, Italian; [2]): 0
Plant response rating, Ryegrass, Italian (ryegrass, Italian; [3]): 0
Plant response rating, Barnyardgrass (barnyardgrass): 40
Velvetleaf plant response rating (velvetleaf; Preemergence, 31 g ai/ha): 10
Plant response rating, Velvetleaf (velvetleaf; [2]): 10
Plant response rating, Velvetleaf (velvetleaf; [3]): 10
Blackgrass plant response rating (blackgrass; [1]): 0
Plant response rating, Blackgrass (blackgrass; [2]): 60
Plant response rating, Blackgrass (blackgrass; [3]): 60
Plant response rating, Blackgrass (blackgrass; [4]): 80
Plant response rating, Corn (corn; [5]): 20
Plant response rating, Corn (corn; [6]): 90
Corn plant response rating (corn; [7]): 0
Plant response rating, Corn (corn; [8]): 0
Plant response rating, Sedge, Umbrella (sedge, umbrella): 70
